The values that follow come from US10815197B2, “N-sulfonyl benzamides as voltage-gated sodium channel inhibitors” (SHANGHAI HAIYAN PHARMACEUTICAL TECHNOLOGY CO., LTD., priority 2016, dated 2020).

By inhibition is commonly meant the drop in the measured response relative to a control, in per cent.

Test [1] addresses T1, hNav1.7 (Homo sapiens, UniProt Q15858).
T1 construct: host or cells: CHO
In words: Manual patch clamp experiment hNav1.7 (CHO-hNav1.7 stable cell line). The format is cell-based. The note with it: for inhibition at 0.1 µM: compound at 100 nM, read-out: Inhibition of Nav1.7 100 nM(%); for inhibition at 1 µM: compound at 1000 nM, read-out: Inhibition of Nav1.7 1000 nM(%). The source says:
Assay 1: Manual Patch Clamp Experiment of Sodium Ion (hNav1.7, hNav1.5 and hNaV1.8) and Calcium Ion (hCav3.2) Channels
hNav1.7, hNav1.5 Manual Patch Clamp Experiment:
Patch voltage clamp electrophysiology allows for the direct measurement and quantification of current block of voltage-gated sodium channels (NaV's), and allows the determination of the time and voltage-dependence of block which has been interpreted as differential binding to the resting, open and inactivated states of the sodium channel to reflect the compound's inhibitory or activating effects (Hille, B., Journal of General Physiology (1977), 69: 497-515).
Representative compounds of the present invention were subject to a manual patch clamp experiment and the purpose of this study was to test the effect of compounds on this ion channel current on a stable cell line transfected with a specific ion channel using a manual patch clamp method. The used stable cell lines CHO-hNav1.7 and HEK-hNav1.5 were from Genionics and WuXi Apptec (Shanghai) respectively.
Manual patch clamp experimental program is as follows:
(1) Preparation of solutions and compounds: The whole cell patch clamp technique was used to record hNav1.7 and hNav1.5 currents. In the experiment, the composition of extracellular fluid (mM): HEPES: 5, NaCl: 40, KCl: CaCl2: 1, MgCl2: 1, CdCl2: 0.1, TEA-Cl: 20. The pH was adjusted to 7.3 with NaOH and the osmotic pressure was adjusted to 310-320 mOsm with sucrose, filtered and stored at 4° C. The composition of the intracellular fluid (mM): HEPES: 10, NaCl: 10, CsOH: 5, CsF: 140, EGTA: 1. The pH was adjusted to 7.3 with CsOH and the osmotic pressure was adjusted to 280-290 mOsm with sucrose, filtered and stored at −20° C.
The positive control and the test compound were firstly dissolved in 100% DMSO (Sigma-Aldrich, D2650), configured as stock solution at a concentration (100 nM, 1000 nM).) The above stock solution was serially diluted with DMSO prior to the experiment, the solution was further diluted with extracellular solution to obtain the test solution of the desired concentration.
(2) Manual Patch Clamp Experiment: The cell suspension was added to a 35 mm petri dish and placed on an inverted microscope stage. The cells were perfused with an extracellular fluid and the flow rate was 1-2 mL/min after cell adherence. The glass microelectrode was prepared in two steps by a microelectrode puller with an inlet water resistance of 2-5 MΩ. A/D-D/A digital-analog conversion was performed by Digidata 1440 (Molecular Devices) and pCLAMP software (version 10.2, Molecular Devices) for stimulation and signal acquisition; the signal was amplified by patch clamp amplifier (Multiclamp 700B, Molecular Devices), and filtering is 4 KHz.
Two different voltage stimulation procedures were used in the hNav1.7 and hNav1.5 manual patch clamp experiments.
One is the inactivation stimulation program, the clamp potential is set at V1/2 of the corresponding channel, i.e., about 50% of the channels are inactivated, then the voltage is applied to −120 mV for 50 ms, then depolarized to −10 mV for 20 ms leading to sodium current, and finally returned to the clamp potential. This stimulation program can also be called channel state-dependent voltage stimulation program.
The other is the non-inactivation stimulation program, the clamp potential is maintained at −120 mV, voltage stimulation is given to −10 mV for 20 ms leading to sodium current, and finally returned to the clamp potential. That is, all channels have not experienced inactivation status, but activate directly from the resting state under the conditions of the stimulation program.
The time intervals of these two voltage stimulation programs were 10 s. The inhibitory effect of the compound was calculated by the change of the current before and after dosing, the IC50 value was fitted by the Hill equation.
(In general: Patch clamp records ionic current or voltage across a cell membrane.)

For test [2], the target named is T2, hERG potassium ion channel (Homo sapiens, UniProt Q12809).
T2 construct: host or cells: CHO
T2 sequence (Q12809 whole entry): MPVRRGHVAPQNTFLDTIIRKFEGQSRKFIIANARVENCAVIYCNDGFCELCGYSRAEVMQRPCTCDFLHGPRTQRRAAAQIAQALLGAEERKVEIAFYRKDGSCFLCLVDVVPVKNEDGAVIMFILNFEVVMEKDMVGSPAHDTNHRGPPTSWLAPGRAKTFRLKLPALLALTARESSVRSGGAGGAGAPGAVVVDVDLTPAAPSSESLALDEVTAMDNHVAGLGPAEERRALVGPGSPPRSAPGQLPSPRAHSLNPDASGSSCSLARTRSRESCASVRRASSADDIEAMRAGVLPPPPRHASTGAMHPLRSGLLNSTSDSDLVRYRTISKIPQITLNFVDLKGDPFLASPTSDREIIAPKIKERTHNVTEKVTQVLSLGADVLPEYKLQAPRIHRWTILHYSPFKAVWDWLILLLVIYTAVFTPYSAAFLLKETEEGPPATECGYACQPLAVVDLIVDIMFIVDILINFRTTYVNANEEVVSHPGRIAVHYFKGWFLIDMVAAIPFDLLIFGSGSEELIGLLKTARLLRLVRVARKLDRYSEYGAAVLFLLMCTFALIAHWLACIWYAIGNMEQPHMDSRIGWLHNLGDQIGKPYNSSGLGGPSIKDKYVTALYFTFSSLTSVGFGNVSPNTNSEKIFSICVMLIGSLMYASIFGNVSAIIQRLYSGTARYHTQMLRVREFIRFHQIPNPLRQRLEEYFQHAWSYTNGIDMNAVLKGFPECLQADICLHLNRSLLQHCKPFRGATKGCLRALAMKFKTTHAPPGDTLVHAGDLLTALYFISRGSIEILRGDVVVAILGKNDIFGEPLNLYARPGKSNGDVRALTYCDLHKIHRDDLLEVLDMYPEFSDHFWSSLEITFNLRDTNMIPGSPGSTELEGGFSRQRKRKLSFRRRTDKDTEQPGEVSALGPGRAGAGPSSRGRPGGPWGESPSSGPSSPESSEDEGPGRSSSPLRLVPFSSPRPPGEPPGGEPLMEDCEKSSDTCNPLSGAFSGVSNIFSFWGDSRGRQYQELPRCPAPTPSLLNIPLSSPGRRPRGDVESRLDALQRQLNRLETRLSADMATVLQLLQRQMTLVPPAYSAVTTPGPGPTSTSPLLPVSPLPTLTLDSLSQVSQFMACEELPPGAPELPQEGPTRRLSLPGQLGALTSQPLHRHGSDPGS
Kind of test: Effect on hERG potassium ion channel (CHO hERG cells, manual patch clamp). Type of test: cell-based. To be noted: final 10 μM test concentration, read-out: hERG inhibitory concentration IC50. The procedure:
Assay 2: Effect on hERG Potassium Ion Channel 2.1 Cell Culture 2.1.1 Cells used in this experiment were CHO cell lines (supplied by Sophion Bioscience, Denmark) which were hERG cDNA transfectant and stably express hERG channels, and cell progeny was P15. Cells were cultured in medium containing the following ingredients Invitrogen): Ham's F12 medium, 10% (v/v) inactivated fetal bovine serum, […] Geneticin. 2.1.2 CHO hERG cells were grown in Petri dishes containing the above medium and cultured in an incubator containing 5% CO2 at 37° C. CHO hERG cells were transferred onto round glass plates in Petri dishes, and grown on the same culture medium under culture conditions as above for 24 h to 48 h prior to the electrophysiological experiments, and the density of CHO hERG cells on each round glass plate needs to meet the requirements that the vast majority of cells are independent and individual. 2.2 Experimental Solution The following solutions (supplied by Sophion) were used for electrophysiological recording as shown in Table 3. The reagents used in this test were provided by Sigma. [table] 2.3 Electrophysiological Recording System In this experiment, whole-cell current recording was performed using a manual patch clamp system (HEKA EPC-10 signal amplification and digital conversion system, purchased from HEKA Electronic, Germany). The round glass slide, surface of which CHO hERG cells were grown on was placed in an electrophysiological recording slot under an inverted microscope. Extracellular fluid was used for steady perfision in recording slot (approximately 1 ml per minute). A conventional whole-cell patch clamp current recording technique was used in the experiment. Unless otherwise specified, experiments were performed at normal room temperature (25° C.). Cell clamping was at −80 mV. Cell clamping voltage depolarized to +20 mV to activate hERG potassium channel, clamping to −50 mV after 5 sec to eliminate inactivation and generate tail currents. The tail current peak was used as a value for hERG current. The hERG potassium current recorded in the above steps could be superfused for test drug after the steady perfusion state of the extracellular fluid in the recording slot is stabilized until the inhibition of the hERG current by the drug reached a steady state. The coincidence of the last three consecutive current recording lines was generally used as a criterion to determine whether the state is stable. After reaching a steady state, perfused with extracellular fluid until hERG current returned to the value before the drug adding. One or more drugs could be tested on a single cell, or multiple concentrations of the same drug, but needed to be rinsed with extracellular fluid between different drugs. […] 2.4 Compound Treatment and Dilution The compound was firstly dissolved in DMSO to a concentration of 10 mM and then the compound was diluted 1000-fold to the final […] test concentration using an extracellular solution. The final concentration of DMSO in the compound test solution was equal to 0.1%. […] All stock solutions and test solutions were subjected to regular 5-10 minute sonication and shaken to ensure complete dissolution of the compound. 2.5 Data Analysis The test data were analyzed by the data analysis software provided by HEKA Patchmaster (V2x73.2), Microsoft Excel and Graphpad Prism 5.0.
A general note: Block of hERG is tested as a sign of cardiac risk.

Test [3] concerns SNL-induced cold allodynia in rats. Kind of test: Cold allodynia in SNL (spinal nerve ligation) rats. The format is in vivo, rat. The source says:
Assay 3: Cold Allodynia in SNL
The experimental animals were male Sprague-Dawley rats, weighing 140-150 g at the beginning of the experiment. The animals were purchased from Slack company, and food and water were supplied ad lib after purchase. Rats were group-housed, four rats/cage, and individually identified by marking on the tail.
Test Compound and Grouping:
Vehicle: 5% dimethylacetamide(Sinopharm Technology), 5% solutol (Sigma) and 90% saline
Positive control: Pregabalin;
Test compound: compound Z-164;
The positive control and solvent composition of the test compound are 5% dimethylacetamide, 5% solutol and 90% saline.
30 mg/kg Compound Z-164:1.23 mL of dimethylacetamide was added to 148.11 mg of compound Z-164, stirred well until fully dissolved, and then 1.23 mL solutol was added and mixed well. Final volume was made up with 90% saline to 21.44 mL and mixed well before oral administration.
30 mg/kg Pregabalin: 1.08 mL of dimethylacetamide was added to 129.48 mg of Pregabalin, stirred well until fully dissolved, and then 1.08 mL solutol was added and mixed well. Final volume was made up with 90% saline to 21.58 mL and mixed well before oral administration.
1.1. Spinal Nerve Ligation (SNL) model • Surgical procedures are performed aseptically. • The surgical instruments (scissors, tweezers, scalpels, surgical cotton, sutures, retractor) are sterilized prior to surgery. • Animals were anesthetized with pentobarbital (50 mg/kg, i.p.). A toe pinch was used to ensure that the animals were fully anesthetized prior to surgery. Put ophthalmic ointment in the animal's eyes to prevent the corneas from drying out. • The fur on the surgical area of animal's lower body was shaved, and the skin of the surgical area was swabbed with 3 rounds of Betadine and 70% ethanol. The skin was allowed to dry before surgery. • A longitudinal incision will be made by scalpel at the lower lumbar and sacral levels, exposing the paraspinal muscles on the left side. The retractor was used to separate the muscles and tissues to expose the vertebra. • The left L5 and L6 spinal nerves will be isolated and tightly ligated with 6-0 silk thread. • The wound was closed with sutures. • The surgical instruments were cleaned, and sterilized by using a glass bead sterilizer. • Animals were placed on the electric blanket after surgery. Inject 5 ml sterile saline to prevent dehydration. The animals were returned to their home cage after fully awake (walking around).
1.2. Baseline Test of Cold Allodynic and Grouping
The baseline of cold allodynic was measured in rats two days before dosing. Use a pipette to apply 100 μl of acetone to the animal's lateral hind paw skin and the time of slapping, flinching, lifting, licking of the affected paw were recorded for one minute. Acetone was applied twice in total and the two applications were 10 minutes apart. The sum of the two times was recorded as cold allodynic time in rats. The rats were grouped randomized according to the results of baseline test of cold allodynic the day before dosing.
1.3. Cold Allodynic Testing
A pipette was used to apply 100 μl of acetone to the animal's lateral hind paw skin two hours after dosing and the time of slapping, flinching, lifting, licking of the affected paw were recorded for one minute. Acetone was applied twice and the two applications were 10 minutes apart. The sum of the two times was recorded as cold allodynic time in rats.
Oral administration was performed two hours before cold allodynic testing.
1.5. Data Collection and Analysis
Data were collected with Excel and analyzed with Prism.

The mark [4] stands for this setting: 30 mg/kg p.o., two hours after dosing.

T1 sequence (Q15858 whole entry): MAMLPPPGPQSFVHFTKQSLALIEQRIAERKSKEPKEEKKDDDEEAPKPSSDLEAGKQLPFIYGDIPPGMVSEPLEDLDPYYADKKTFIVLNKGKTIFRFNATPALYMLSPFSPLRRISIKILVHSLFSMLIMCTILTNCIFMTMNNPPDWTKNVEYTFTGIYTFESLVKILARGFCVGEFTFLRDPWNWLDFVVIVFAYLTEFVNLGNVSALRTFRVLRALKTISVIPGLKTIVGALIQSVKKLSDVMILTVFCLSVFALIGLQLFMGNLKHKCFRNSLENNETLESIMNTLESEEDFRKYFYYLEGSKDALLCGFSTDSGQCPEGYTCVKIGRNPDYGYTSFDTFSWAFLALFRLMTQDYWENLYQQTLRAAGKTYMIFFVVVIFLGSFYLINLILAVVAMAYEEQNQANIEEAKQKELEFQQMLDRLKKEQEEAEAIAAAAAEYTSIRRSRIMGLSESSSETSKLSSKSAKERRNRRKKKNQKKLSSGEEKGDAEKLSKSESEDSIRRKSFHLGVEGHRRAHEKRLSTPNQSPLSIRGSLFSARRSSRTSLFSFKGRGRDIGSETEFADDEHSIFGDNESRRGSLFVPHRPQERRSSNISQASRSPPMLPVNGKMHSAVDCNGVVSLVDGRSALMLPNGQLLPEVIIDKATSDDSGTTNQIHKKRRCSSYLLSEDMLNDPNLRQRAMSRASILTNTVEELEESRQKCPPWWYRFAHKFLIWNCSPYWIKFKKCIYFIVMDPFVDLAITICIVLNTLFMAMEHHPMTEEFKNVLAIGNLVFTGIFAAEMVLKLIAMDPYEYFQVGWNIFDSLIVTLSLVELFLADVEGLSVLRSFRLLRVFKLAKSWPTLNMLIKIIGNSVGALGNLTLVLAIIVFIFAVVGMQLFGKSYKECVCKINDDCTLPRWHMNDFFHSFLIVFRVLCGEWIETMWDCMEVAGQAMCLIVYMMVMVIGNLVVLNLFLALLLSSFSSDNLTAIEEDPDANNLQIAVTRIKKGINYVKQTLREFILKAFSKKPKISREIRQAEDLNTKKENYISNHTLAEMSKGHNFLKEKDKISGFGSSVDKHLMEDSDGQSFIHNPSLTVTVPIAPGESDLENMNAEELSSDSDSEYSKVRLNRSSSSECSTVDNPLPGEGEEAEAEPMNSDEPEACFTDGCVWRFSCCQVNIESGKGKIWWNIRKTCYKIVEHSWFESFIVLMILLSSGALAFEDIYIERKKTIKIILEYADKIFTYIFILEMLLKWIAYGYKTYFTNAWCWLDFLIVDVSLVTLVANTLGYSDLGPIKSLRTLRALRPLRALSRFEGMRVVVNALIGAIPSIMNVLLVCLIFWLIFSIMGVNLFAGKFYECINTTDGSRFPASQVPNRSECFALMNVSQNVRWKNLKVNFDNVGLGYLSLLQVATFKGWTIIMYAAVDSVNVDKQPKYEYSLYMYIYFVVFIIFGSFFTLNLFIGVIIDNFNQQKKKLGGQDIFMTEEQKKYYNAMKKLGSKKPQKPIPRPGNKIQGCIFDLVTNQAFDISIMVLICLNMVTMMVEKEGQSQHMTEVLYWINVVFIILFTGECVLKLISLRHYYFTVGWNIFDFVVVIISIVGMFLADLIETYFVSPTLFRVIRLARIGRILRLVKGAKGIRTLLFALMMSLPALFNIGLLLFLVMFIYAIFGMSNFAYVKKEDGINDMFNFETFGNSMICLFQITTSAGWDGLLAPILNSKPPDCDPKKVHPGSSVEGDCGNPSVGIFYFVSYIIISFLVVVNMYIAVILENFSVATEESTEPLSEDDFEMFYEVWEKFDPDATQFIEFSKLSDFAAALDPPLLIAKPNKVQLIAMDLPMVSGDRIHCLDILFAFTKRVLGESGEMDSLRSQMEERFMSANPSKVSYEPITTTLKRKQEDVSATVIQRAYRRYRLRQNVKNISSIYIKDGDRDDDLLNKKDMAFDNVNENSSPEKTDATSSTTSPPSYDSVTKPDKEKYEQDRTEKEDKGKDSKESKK

Regarding `Cc1cc(N2CCN(Cc3cc(F)c(C(=O)NS(=O)(=O)C4CC4)cc3Cl)CC2)c(F)cc1Cl` [Compound Z-186], in test [1], the inhibition at 0.1 µM stood at 83.3% and the inhibition at 1 µM came to 100%. Besides, the IC50 in test [2] was above 10 µM.

In the case of `Cc1cc(N2CCN(Cc3cc(F)c(C(=O)NS(=O)(=O)C4CC4)cc3Cl)CC2)c(C)cc1Cl` [Compound Z-183], in test [1], the inhibition at 0.1 µM was found to be 90.8% and the inhibition at 1 µM was 99.5%. In test [2], the IC50 was above 10 µM.

As for `Cc1c(Cl)ccc(N2CCN(Cc3cc(F)c(C(=O)NS(=O)(=O)C4CC4)cc3Cl)CC2)c1Cl` [Compound Z-187], in test [1], the inhibition at 0.1 µM came out at 89.7% and the inhibition at 1 µM was 100%. For the same compound, the IC50 in test [2] was above 10 µM.

Turning to `CC(C)C[C@H](CN)CC(=O)O` [Positive control, Pregabalin, reference compound], in test [3] (setting [4]), the “Anti-allodynia Effect (mean, %)” value turned out to be 74.9% and the “Response duration (mean, s) the next day (Baseline)” value stood at 13.005 s. In addition, in test [3] (30 mg/kg, 2 hr post oral administration), the “inhibition of SNL-induced cold allodynia (in words)” value is reported as “inhibition of SNL-induced cold allodynia”. Moreover, in test [3] (acetone cold allodynia, baseline before dosing), the “Response duration (mean, s) the first day (Baseline)” value was 36.847 s.
